Data on nine compounds can be found in US20040105875A1, “Composition containing a secondary or tertiary carbonyl amine, method of use thereof, compounds” (L'OREAL, priority 2002, published 2004).

Each structure is given as a SMILES string.

The test system of data set [1] is calcium flux (release of Ca2+) in HDFa cells obtained from skin fibroblasts. The data set is described as follows: Inhibition of calcium flux (IC50Ca2+) on cells obtained from skin fibroblasts HDFa. The conditions noted are these: 50% inhibitory concentration for the release of Ca2+. Format: cell-based. The source says: (§1) In order for a substance to be recognized as a calcium-channel inhibitor, it must be able to reduce the intracellular calcium concentration or reduce the binding of calcium to intracellular proteins such as, for example, calmodulin, as is described especially by Galizzi, J. P. et al., J. Biol. Chem. 1987, 262 p. 6947; by Y. Okamiya et al., Eur. J. Pharmacol. 1991, 205, p. 49; by J. A. Wagner et al., J. Neurosci. 1988, 8, p. 3354; by H. R. Lee et al., Life Sci. 1984, 35, p. 721; by Schoemaker H. and Lauger S. Eur. J. Pharmacol. 1985, 111, p. 273 or I. J. Reynolds et al., J. Pharmacol. Exp. Ther. 1986, 237, p. 731.
(§2) According to the protocol indicated in these documents, the Assignee determined the IC50Ca2+ of inhibition of calcium flux for compounds (Ia), (IIa) to (IId), (IIIa) and (IIIb), in comparison with verapamil. IC50Ca2+ represents the 50% inhibitory concentration for the release of Ca^2+.

For data set [2], the system named is calcium flux (release of Ca2+) in SK-N-SH nerve cells. The data set is described as follows: Inhibition of calcium flux (IC50Ca2+) on nerve cells SK-N-SH. Format: cell-based. The following applies: Homo sapiens, 50% inhibitory concentration for the release of Ca2+.
Description: as §1, §2
In general terms: Calcium flux is commonly read through the fluorescence of an indicator in the cells.

In the next data set the test system is fibroblasts. The data set is described as follows: Cytotoxicity check in the dermal equivalent test. Format: cell-based, human.
Data set [3] concerns normal human fibroblasts inserted into a fibrillar collagen gel (dermal equivalent). In words: Contraction of dermal equivalents (fibroblasts in fibrillar collagen gel), dermo-decontracting effect. The class given is cell-based. From the text: This model thus makes it possible to evaluate the relaxing potential of compounds by measuring the delay in contraction of the treated dermal equivalents relative to the control dermal equivalents prepared under the same conditions. Verapamil is used as reference molecule.
Dermal fibroblasts are isolated from human skin explants and cultured in MEM medium+additives (10% foetal calf serum, 1% glutamine, 1% non-essential amino acids, 1% sodium pyruvate, 1% Fungizone and 1% penicillin/streptomycin). The collagen used is obtained from a commercial solution. It is extracted from rat tails and stored in acidic medium at +4° C. It is dialysed beforehand against successive baths of acetic acid of decreasing concentration.
The mixture is homogenized cautiously, so as to obtain a distribution of the cells in the collagen matrix that is as uniform as possible. It is then distributed in each well of a 12-well culture dish at a rate of 2 ml/well. The final cell concentration is 3×10^4 cells/dermal equivalent with a final collagen concentration of 1 mg/ml.
The culture dishes are incubated at 37° C./5% CO2 so as to obtain polymerization and gelation of the collagen. The dermal equivalents thus treated adhere to the dishes and the cells are subjected to mechanical stresses that potentiate their contractile properties. The cells thus cultured in 3D end up under conditions close to those of the dermis. After culturing for three days under these “attached” conditions, the dermal equivalents are detached from their support by gentle agitation. […]
To do this, a digital image is acquired for each treated or untreated dermal equivalent using a camera (CCD camera—Iris Sony DXC -107P) and on each of them, the small (D1) and large (D2) diameters of the dermal equivalent are measured by computer. The surface area is calculated according to the formula for calculating an ellipse: S=(D1×D2×π)/4. […] The percentage of contraction is calculated according to the formula below, in which Si represents the surface area of the dermal equivalent at Ti: […]

As to `COc1cc(CNCCC(=O)c2ccccc2)ccc1O` [Compound (IIIa)], the IC50 was 30 µM in data set [1] and 41 µM in data set [2].

`COc1ccc(CCN(C)CCC(=O)c2ccccc2)cc1OC` [Compound (IIIb)]: the IC50 in data set [1] was 6 µM; in data set [2] it was 14 µM.

As for `CCCCCC(=O)CCN(CC)CCC(=O)c1ccccc1` [Compound (IIa)], the IC50 was found to be 41 µM in data set [1] and 29 µM in data set [2].

Turning to `CCCCCCCN(C)CCC(=O)c1ccccc1` [Compound (IIb)], the values for the IC50 in data set [1] and in data set [2] were 31 µM and 26 µM, respectively.

Turning to `CCCCCCCNCCC(=O)c1ccccc1` [Compound (IIc)], the IC50 in data set [1] was determined as 46 µM; in data set [2], 36 µM.

Take `CCCCCC(O)(CCCCC)CCN(CC)CCC(=O)c1ccccc1` [Compound (IId), 3-[ethyl(3-hydroxy-3-pentyloctyl)amino]-1-phenylpropan-1-one]: the IC50 in data set [1] turned out to be 4 µM; in data set [2], 3 µM.

As to `CN(CCC(=O)c1ccccc1)CCC(=O)c1ccccc1.Cl` [Compound (Ia)], the “cytotoxicity as cause of the decontracting effect” value in the data set on fibroblasts was “did not result from any cytotoxicity”. Also, the IC50 in data set [2] is 36 µM. The “difference in the degree of contraction compared with control dermal equivalents” value in data set [3] (tested at 1 μm, after 4 days of contact with the fibroblasts) is on record as 25%.

Take `CCN(CCCc1ccccc1)CCCc1ccccc1` [alverine, reference compound]: in data set [2], the IC50 came to 30 µM. In addition, the “activity in the dermal equivalent contraction test” value in data set [3] (tested under the same conditions) is “no activity”.

For `COc1ccc(CCN(C)CCCC(C#N)(c2ccc(OC)c(OC)c2)C(C)C)cc1OC` (stereo not drawn) [verapamil], the “difference in the degree of contraction compared with control dermal equivalents” value in data set [3] (tested at 10 μM, same conditions (4 days of contact)) stood at 32%.

The term IC50 denotes the concentration needed to halve the response being measured.
